This is an account of results in patent US20250064778A1, “GRANULES COMPRISING PROGERININ, AND SACHETS USING SAME” (PRG S&TECH INC., priority 2022, published 2025).

Molecules are shown by their SMILES.

Series [1] relates to progeria-induced animal model. Particulars: cited from earlier work.
The conditions of series [2]: cited from earlier work.
Series [3] relates to progerin. To be noted: cited from earlier work.
Series [4] is described as follows: Stability of spray-dried solid dispersions under storage for 2 weeks. It is filed as physicochemical. Particulars: for Appearance / HPLC results Purity / XRPD: open.
The nature of series [5]: Excipient compatibility of progerinin. It is filed as physicochemical. To be noted: mixed with HPMC E3, TPGS and potassium sorbate 1:10, 40° C./75% RH, 2 weeks.

Turning to `CC1(C)Oc2cc3oc(=O)ccc3cc2C[C@@H]1OC/C=C/c1ccccc1` [progerinin, (7S)-(+)-8,8-dimethyl-7-(3-phenylallyloxy)-7,8-dihydro-6H-pyrano[3,2-g]chromen-2-one], in series [1], the survival period result was “prolonging a survival period”. The “solubility in aqueous media” value in series [2] (BCS criteria) is given as “low solubility”. For the same compound, in series [2], the solubility in water result was “close to zero”. Moreover, the suppressing progerin expression entry in series [3] is “excellent effects of suppressing progerin expression”. For the same compound, the Appearance result was “White” in series [4] (25° C./60% RH, after 1 week) and “White” in series [4] (40° C./75% RH, after 1 week). Moreover, the “HPLC results Purity” value is reported as 99.85% in series [4] (25° C./60% RH, after 1 week); 99.85% in series [4] (25° C./60% RH, after 2 weeks); 99.85% in series [4] (40° C./75% RH, after 1 week); 99.85% in series [4] (40° C./75% RH, after 2 weeks). The XRPD result was “Unchanged” in series [4] (25° C./60% RH, after 1 week); “Unchanged” in series [4] (25° C./60% RH, after 2 weeks); “Unchanged” in series [4] (40° C./75% RH, after 1 week); “Unchanged” in series [4] (40° C./75% RH, after 2 weeks). In addition, in series [4] (initial), the Initial purity is listed as 99.85%. Moreover, in series [5], the “compatibility with excipients (effect on the drug)” value is given as “had no effect on the drug”.
